Data: ChEMBL document CHEMBL1201862, “PubChem BioAssay data set” (2004)
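A five-concentration, 48-hour dose response in 96-well plates underlies each endpoint, interpolated linearly between surrounding concentrations. GI50 = concentration required for 50% inhibition of growth.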 Active and inactive are the calls of the source. Rule as the data show it: active = GI50 up to about 1.1 µM and inactive = higher.

Tests used:
Assay in all cases: inhibition of tumour cell growth, NCI panel, 48 h
[1] = test system: CAKI-1
[2] = test system: KM12
[3] = test system: SK-MEL-5
[4] = test system: TK-10
[5] = test system: NCI/ADR-RES
[6] = test system: SR
[7] = test system: SF-268
[8] = test system: OVCAR-3
[9] = test system: NCI-H226
[10] = test system: HT-29
[11] = test system: IGROV-1
[12] = test system: OVCAR-4
[13] = test system: ACHN
[14] = test system: MOLT-4
[15] = test system: A549
[16] = test system: MDA-N
[17] = test system: RXF 393
[18] = test system: HOP-92

Measured: GI50

CC1=C(C(=O)OC(C)C)C(c2cccc([N+](=O)[O-])c2)C(C(=O)OC(CO[N+](=O)[O-])CO[N+](=O)[O-])=C(C)N1 (stereo unspecified)
inactive: [1] 3.99 µM | [2] 3.3 µM | [3] 1.96 µM | [4] 8.07 µM | [5] 2.45 µM | [6] 3.22 µM | [7] 2.26 µM | [8] 3.45 µM | [9] 6.55 µM | [10] 3.21 µM | [11] 4.75 µM | [12] 2.81 µM | [13] 3.44 µM | [14] 1.85 µM | [15] 3.37 µM | [16] 2.83 µM | [17] 7.52 µM | [18] 1.78 µM

COC(=O)[C@@H]1C[C@]2(CC=C(C)C)c3ccccc3N(S(=O)(=O)c3ccccc3)[C@@H]2N1C(=O)OC
inactive: [1] 27.2 µM | [2] 19.7 µM | [3] 11.6 µM | [4] 32 µM | [5] 10.4 µM | [6] 5.33 µM | [7] 18 µM | [8] 19.4 µM | [9] 19 µM | [10] 23.5 µM | [12] 18.1 µM | [13] 25.5 µM | [14] 8.2 µM | [15] 11.6 µM | [16] 26.9 µM | [17] 8.22 µM | [18] 15.1 µM

Cc1cc(=O)oc2c(CNC(C)C(=O)O)c(O)ccc12 (stereo unspecified)
inactive: [1] > 100 µM | [2] > 100 µM | [3] > 100 µM | [4] 95.7 µM | [5] > 100 µM | [6] > 100 µM | [7] > 100 µM | [8] > 100 µM | [9] > 100 µM | [10] > 100 µM | [11] > 100 µM | [12] > 100 µM | [13] > 100 µM | [14] > 100 µM | [15] > 100 µM | [16] > 100 µM | [17] > 100 µM | [18] 65.3 µM

COc1ccc2nc(/C(N)=C\C#N)ccc2c1
inactive: [1] > 100 µM | [2] 52.1 µM | [3] 11.9 µM | [4] 59.2 µM | [5] 30.8 µM | [6] 22.3 µM | [7] 33.7 µM | [8] 31.6 µM | [9] > 100 µM | [10] 47.6 µM | [11] 29.9 µM | [12] 86.7 µM | [13] 75.2 µM | [14] 23.9 µM | [15] 47.2 µM | [16] 45.3 µM | [17] 1.89 µM | [18] 91.8 µM
